{"source": "paper PMC6600469", "about": "“Synthesis and Biological Evaluation of NH2-Sulfonyl Oseltamivir Analogues as Influenza Neuraminidase Inhibitors” (Molecules, 2019)", "key": {"[1]": {"test": "Metabolic stability in human liver microsomes in vitro", "conditions": "for Remaining (T = 60 min): human liver microsomes 0.5 mg/mL, 37 °C, 60 min incubation; for half-life: human, liver microsomes"}, "[2]": {"molecular_target": "H5N1 neuraminidase (A/Anhui/2005) (Influenza A virus (H5N1), UniProt A0A0C5AGB3)", "test": "biochemical", "type": "biochemical, influenza A H5N1 (A/Anhui/2005)", "conditions": "for inhibition at 10 µM / inhibition at 100 µM: read-out: inhibition rate against NA from H5N1 subtype"}, "[3]": {"system": "NAs from H5N1 (A/Chicken/China/1220/2012)", "conditions": "read-out: IC50 against NAs from H5N1; cited from earlier work"}, "[4]": {"molecular_target": "neuraminidase", "conditions": "cited from earlier work"}, "[5]": {"system": "mutant NAs", "conditions": "cited from earlier work"}}}
{"smiles": "CCC(CC)O[C@@H]1C=C(C(=O)O)C[C@H](NS(C)(=O)=O)[C@H]1NC(C)=O", "note": "[4a, (3R, 4R, 5S)-4-acetamido-5-(methylsulfonyl)amino-3-(pentan-3-yloxy) cyclohex-1-enecarboxylic acid]", "values": [{"measurement": "Remaining (T = 60 min)", "setting": "[1]", "result": 101.6, "unit": "%"}, {"measurement": "half-life", "setting": "[1]", "result": "> 145", "unit": "min"}, {"measurement": "inhibition at 10 µM", "setting": "[2]", "result": 73.9, "unit": "%"}, {"measurement": "inhibition at 100 µM", "setting": "[2]", "result": 91.8, "unit": "%"}]}
{"smiles": "CCC(CC)O[C@@H]1C=C(C(=O)O)C[C@H](NS(=O)(=O)CC)[C@H]1NC(C)=O", "note": "[4b, (3R, 4R, 5S)-4-acetamido-5-(ethylsulfonyl)amino-3-(pentan-3-yloxy)cyclohex-1-enecarboxylic acid]", "values": [{"measurement": "melting point", "result": "187.7 to 190", "unit": "°C"}, {"measurement": "inhibition at 10 µM", "setting": "[2]", "result": 50.3, "unit": "%"}, {"measurement": "inhibition at 100 µM", "setting": "[2]", "result": 85.1, "unit": "%"}]}
{"smiles": "CCCS(=O)(=O)N[C@H]1CC(C(=O)O)=C[C@@H](OC(CC)CC)[C@@H]1NC(C)=O", "note": "[4c, (3R, 4R, 5S)-4-acetamido-5-(n-propylsulfonyl)amino-3-(pentan-3-yloxy)cyclohex-1-enecarboxylic acid]", "values": [{"measurement": "melting point", "result": "196.3 to 198.6", "unit": "°C"}, {"measurement": "inhibition at 10 µM", "setting": "[2]", "result": 43.2, "unit": "%"}, {"measurement": "inhibition at 100 µM", "setting": "[2]", "result": 56.5, "unit": "%"}]}
{"smiles": "CCCCS(=O)(=O)N[C@H]1CC(C(=O)O)=C[C@@H](OC(CC)CC)[C@@H]1NC(C)=O", "note": "[4d, (3R, 4R, 5S)-4-acetamido-5-(n-butylsulfonyl)amino-3-(pentan-3-yloxy) cyclohex-1-enecarboxylic acid]", "values": [{"measurement": "melting point", "result": "183.3 to 184.4", "unit": "°C"}, {"measurement": "inhibition at 10 µM", "setting": "[2]", "result": 30.3, "unit": "%"}, {"measurement": "inhibition at 100 µM", "setting": "[2]", "result": 53.5, "unit": "%"}]}
{"smiles": "CCCCCS(=O)(=O)N[C@H]1CC(C(=O)O)=C[C@@H](OC(CC)CC)[C@@H]1NC(C)=O", "note": "[4e, (3R, 4R, 5S)-4-acetamido-5-(n-pentylsulfonyl)amino-3-(pentan-3-yloxy)cyclohex-1-enecarboxylic acid]", "values": [{"measurement": "melting point", "result": "179.1 to 182.8", "unit": "°C"}, {"measurement": "inhibition at 10 µM", "setting": "[2]", "result": 28.5, "unit": "%"}, {"measurement": "inhibition at 100 µM", "setting": "[2]", "result": 50.5, "unit": "%"}]}
{"smiles": "CCC(CC)O[C@@H]1C=C(C(=O)O)C[C@H](NS(=O)(=O)C(F)(F)F)[C@H]1NC(C)=O", "note": "[4f, (3R, 4R, 5S)-4-acetamido-5-((trifluoromethyl)sulfonyl)amino-3-(pentan-3-yloxy)cyclohex-1-enecarboxylic acid]", "values": [{"measurement": "melting point", "result": "193.1 to 195.4", "unit": "°C"}, {"measurement": "inhibition at 10 µM", "setting": "[2]", "result": 24.8, "unit": "%"}, {"measurement": "inhibition at 100 µM", "setting": "[2]", "result": 49.7, "unit": "%"}]}
{"smiles": "CCC(CC)O[C@@H]1C=C(C(=O)O)C[C@H](NS(=O)(=O)c2ccc(NC(C)=O)cc2)[C@H]1NC(C)=O", "note": "[4g, (3R, 4R, 5S)-4-acetamido-5-((4-(acetamido)pheny)sulfonyl)amino-3-(pentan-3-yloxy)cyclohex-1-enecarboxylic acid]", "values": [{"measurement": "melting point", "result": "236.7 to 238.6", "unit": "°C"}, {"measurement": "inhibition rate against NA from H5N1 subtype", "setting": "[2]; 100 µM", "result": "little inhibition"}]}
{"smiles": "CCC(CC)O[C@@H]1C=C(C(=O)O)C[C@H](NS(=O)(=O)c2ccc(C(F)(F)F)cc2)[C@H]1NC(C)=O", "note": "[4h, (3R, 4R, 5S)-4-acetamido-5-((4-(trifluoromethyl)phenyl)sulfonyl)amino-3-(pentan-3-yloxy)cyclohex-1-enecarboxylic acid]", "values": [{"measurement": "inhibition at 10 µM", "setting": "[2]", "result": 40.4, "unit": "%"}, {"measurement": "inhibition at 100 µM", "setting": "[2]", "result": 79.2, "unit": "%"}]}
{"smiles": "CCC(CC)O[C@@H]1C=C(C(=O)O)C[C@H](NS(=O)(=O)c2ccccc2[N+](=O)[O-])[C@H]1NC(C)=O", "note": "[4i, (3R, 4R, 5S)-4-acetamido-5-((2-nitrophenyl)sulfonyl)amino-3-(pentan-3-yloxy)cyclohex-1-enecarboxylic acid]", "values": [{"measurement": "inhibition at 10 µM", "setting": "[2]", "result": 32, "unit": "%"}, {"measurement": "inhibition at 100 µM", "setting": "[2]", "result": 70.1, "unit": "%"}]}
{"smiles": "CCC(CC)O[C@@H]1C=C(C(=O)O)C[C@H](NS(=O)(=O)c2cccc([N+](=O)[O-])c2)[C@H]1NC(C)=O", "note": "[4j, (3R, 4R, 5S)-4-acetamido-5-((3-nitrophenyl)sulfonyl)amino-3-(pentan-3-yloxy)cyclohex-1-enecarboxylic acid]", "values": [{"measurement": "melting point", "result": "114.3 to 115.9", "unit": "°C"}, {"measurement": "inhibition at 10 µM", "setting": "[2]", "result": 20.3, "unit": "%"}, {"measurement": "inhibition at 100 µM", "setting": "[2]", "result": 33.8, "unit": "%"}]}
{"smiles": "CCC(CC)O[C@@H]1C=C(C(=O)O)C[C@H](NS(=O)(=O)c2ccc([N+](=O)[O-])cc2)[C@H]1NC(C)=O", "note": "[4k, (3R, 4R, 5S)-4-acetamido-5-((4-nitrophenyl)sulfonyl)amino-3-(pentan-3-yloxy)cyclohex-1-enecarboxylic acid]", "values": [{"measurement": "melting point", "result": "187.4 to 189.2", "unit": "°C"}, {"measurement": "inhibition at 10 µM", "setting": "[2]", "result": 0.5, "unit": "%"}, {"measurement": "inhibition at 100 µM", "setting": "[2]", "result": 38.9, "unit": "%"}]}
{"smiles": "CCC(CC)O[C@@H]1C=C(C(=O)O)C[C@H](NS(=O)(=O)c2ccccc2N)[C@H]1NC(C)=O", "note": "[6i, (3R, 4R, 5S)-4-acetamido-5-((2-aminophenyl)sulfonyl)amino-3-(pentan-3-yloxy)cyclohex-1-enecarboxylic acid]", "values": [{"measurement": "melting point", "result": "161.8 to 164", "unit": "°C"}, {"measurement": "inhibition at 10 µM", "setting": "[2]", "result": 63.8, "unit": "%"}, {"measurement": "inhibition at 100 µM", "setting": "[2]", "result": 86.6, "unit": "%"}]}
{"smiles": "CCC(CC)O[C@@H]1C=C(C(=O)O)C[C@H](NS(=O)(=O)c2cccc(N)c2)[C@H]1NC(C)=O", "note": "[6j, (3R, 4R, 5S)-4-acetamido-5-((3-aminophenyl)sulfonyl)amino-3-(pentan-3-yloxy)cyclohex-1-enecarboxylic acid]", "values": [{"measurement": "melting point", "result": "177.4 to 178.1", "unit": "°C"}, {"measurement": "inhibition at 10 µM", "setting": "[2]", "result": 37.3, "unit": "%"}, {"measurement": "inhibition at 100 µM", "setting": "[2]", "result": 52.7, "unit": "%"}]}
{"smiles": "CCC(CC)O[C@@H]1C=C(C(=O)O)C[C@H](NS(=O)(=O)c2ccc(N)cc2)[C@H]1NC(C)=O", "note": "[6k, (3R, 4R, 5S)-4-acetamido-5-((4-aminophenyl)sulfonyl)amino-3-(pentan-3-yloxy)cyclohex-1-enecarboxylic acid]", "values": [{"measurement": "melting point", "result": "176.7 to 181.4", "unit": "°C"}, {"measurement": "inhibition at 100 µM", "setting": "[2]", "result": 12.5, "unit": "%"}]}
{"smiles": "CCC(CC)O[C@@H]1C=C(C(=O)O)C[C@H](NCc2ccc(-c3ccccc3)cc2)[C@H]1NC(C)=O", "note": "[A]", "values": [{"measurement": "IC50", "setting": "[3]", "result": 1.9, "unit": "nM"}]}
{"smiles": "CCC(CC)O[C@@H]1C=C(C(=O)O)C[C@H](NCc2ccc(-c3cccs3)cc2)[C@H]1NC(C)=O", "note": "[B]", "values": [{"measurement": "IC50", "setting": "[3]", "result": 2.1, "unit": "nM"}]}
{"smiles": "CCC(CC)O[C@@H]1CC(C(=O)O)=C[C@H](n2cc(C(O)CC)nn2)[C@H]1NC(C)=O", "note": "(stereo partly shown) [C]", "values": [{"measurement": "Ki", "setting": "[4]", "result": 72, "unit": "nM"}]}
{"smiles": "CCC(CC)O[C@@H]1C=C(C(=O)O)C[C@H](NC(C)=O)[C@H]1NC(C)=O", "note": "[D]", "values": [{"measurement": "inhibitory activities against mutant NAs", "setting": "[5]", "result": "enhanced inhibitory activities"}]}
{"smiles": "O=C(O)Cc1ccccc1Nc1c(Cl)cccc1Cl", "note": "[Diclofenac, diclofenac]", "values": [{"measurement": "Remaining (T = 60 min)", "setting": "[1]", "result": 1.1, "unit": "%"}, {"measurement": "half-life", "setting": "[1]", "result": 9.2, "unit": "min"}]}
{"smiles": "CCC(CC)O[C@@H]1C=C(C(=O)O)C[C@H](N)[C@H]1NC(C)=O", "note": "[OC, oseltamivir carboxylate, reference compound]", "values": [{"measurement": "inhibition rate against NA from H5N1 subtype", "setting": "[2]; 10 µM", "result": 91.0, "unit": "%"}, {"measurement": "inhibition rate against NA from H5N1 subtype", "setting": "[2]; 100 µM", "result": 95.0, "unit": "%"}]}
{"smiles": "C[C@]12CC[C@H]3[C@@H](CCC4=CC(=O)CC[C@@]43C)[C@@H]1CC[C@@H]2O", "note": "[Testosterone, testosterone]", "values": [{"measurement": "Remaining (T = 60 min)", "setting": "[1]", "result": 3.8, "unit": "%"}, {"measurement": "half-life", "setting": "[1]", "result": 12.5, "unit": "min"}]}
